# Test results as given in PubChem BioAssay (NCI).
#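 Test compounds were applied to cells in 96-well plates for 48 hours at 5 doses. At the TGI there is no net growth.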 Where a SMILES comes first, the peptide text is derived from it. [ ]: non-standard residue; d: D form.
# Experiments:
# Test in all cases: NCI tumour cell line growth inhibition, 48 h
# BT-549 breast = test system: BT-549 breast
# DU-145 prostate = test system: DU-145 prostate
# HS 578T breast = test system: HS 578T breast
# MDA-MB-435 = test system: MDA-MB-435
# PC-3 prostate = test system: PC-3 prostate
# T-47D breast = test system: T-47D breast
# LXFL 529 NSCLC = test system: LXFL 529 NSCLC
# P388 leukemia = test system: P388 leukemia
# P388/ADR leukemia = test system: P388/ADR leukemia
# SN12K1 renal = test system: SN12K1 renal
# 786-0 renal = test system: 786-0 renal
SMILES,TGI (DU-145 prostate),TGI (HS 578T breast),TGI (MDA-MB-435),TGI (PC-3 prostate),TGI (T-47D breast),TGI (LXFL 529 NSCLC),TGI (P388/ADR leukemia),TGI (SN12K1 renal),other results
O=c1oc2cc(O)ccc2c(O)c1Cc1c(O)c2ccc(O)cc2oc1=O,> 100 µM,> 100 µM,> 100 µM,> 100 µM,> 100 µM,–,–,–,TGI (BT-549 breast): > 100 µM
O=c1cc(-c2ccccc2)[nH]c2nccn12,> 10 µM,> 10 µM,> 10 µM,> 10 µM,> 10 µM,–,–,–,–
Cc1ccc2c(=O)c3ccccc3sc2c1,–,–,–,–,–,> 100 µM,–,–,–
CC(=O)Nc1cccc(N=NN(C)C)c1,–,–,–,–,–,–,> 100 µM,> 100 µM,TGI (P388 leukemia): > 100 µM
CCn1cnnc1-c1nsc2ccccc12,–,–,–,–,–,> 100 µM,–,–,–
CCC1NC(N=Nc2ccc([N+](=O)[O-])cc2)(P(=O)(OC(C)C)OC(C)C)OC1=O (centres undefined),–,–,–,–,–,> 100 µM,–,–,–
CC(C)NC(=O)OCc1c2c(n(C)c1COC(=O)NC(C)C)-c1ccccc1CC2,–,–,–,–,–,–,5.27 µM,24.4 µM,–
O=C(O)C1CCCCN1c1ccccc1[N+](=O)[O-] (centres undefined),–,–,–,–,–,> 100 µM,–,–,–
CC1=CC2c3cccc4[nH]cc(c34)CC2N(C)C1 (centres undefined),–,–,–,–,–,–,> 73.1 µM,> 31.6 µM,TGI (P388 leukemia): > 100 µM
CN(Cc1cnc2c(N)nc(N)nc2n1)c1ccc(Cl)cc1,> 100 µM,> 100 µM,> 100 µM,> 100 µM,> 100 µM,–,–,–,TGI (BT-549 breast): > 100 µM
CC(C)C[C@H](NC(=O)[C@H](CC(C)C)NC(=O)[C@@H](Cc1c[nH]c2ccccc12)NC(=O)[C@H](Cc1ccccc1)NC(=O)[C@@H](Cc1c[nH]c2ccccc12)NC(=O)[C@H](CCC(N)=O)NC(=O)[C@H](CCC(N)=O)NC(=O)[C@H]1CCCN1C(=O)[C@@H](N)CCCCN)C(N)=O (H-K[dP]QQ[dW]F[dW]LL-NH2),–,–,–,–,–,–,> 100 µM,> 100 µM,TGI (P388 leukemia): > 100 µM
O=[N+]([O-])c1ccc(NNN=Nc2ccc(-c3nc4ccccc4s3)cc2)c([N+](=O)[O-])c1,> 100 µM,> 100 µM,66.2 µM,73.3 µM,> 100 µM,–,–,–,TGI (786-0 renal): 50.6 µM; TGI (BT-549 breast): 58.7 µM
